These results are taken from publication PMC6747015, “Structure–function study of a novel inhibitor of the casein kinase 1 family in Arabidopsis thaliana” (Plant Direct, 2019).

What is called IC50 is the concentration that inhibits the measured activity by half.

One experiment deals with T1, Recombinant CKL4 kinase (Arabidopsis thaliana, UniProt Q8LPI7).
T1 sequence (Q8LPI7 1-414): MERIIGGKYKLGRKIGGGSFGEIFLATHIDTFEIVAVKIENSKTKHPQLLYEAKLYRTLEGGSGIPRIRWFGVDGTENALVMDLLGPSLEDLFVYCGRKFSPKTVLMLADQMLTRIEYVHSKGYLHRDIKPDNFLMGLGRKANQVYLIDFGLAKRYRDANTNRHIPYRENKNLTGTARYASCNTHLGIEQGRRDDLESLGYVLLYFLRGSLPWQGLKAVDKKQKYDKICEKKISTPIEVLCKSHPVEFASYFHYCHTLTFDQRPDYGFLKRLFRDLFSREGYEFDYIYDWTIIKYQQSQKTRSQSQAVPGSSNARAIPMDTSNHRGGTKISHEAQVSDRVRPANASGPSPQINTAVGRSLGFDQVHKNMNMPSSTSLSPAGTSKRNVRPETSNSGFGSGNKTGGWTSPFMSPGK
Nature of the experiment: In vitro phosphorylation assay of CKL4 (32P phosphorylation of casein). It counts as biochemical. The procedure: In vitro phosphorylation assays using recombinant CKL4 were performed as described previously (Uehara et al., 2019), with synthetic small molecules. IC261 and PF‐670462 were purchased (Sigma‐Aldrich catalog numbers I0658 and SML0795, respectively). PHA767491 was synthesized as previously described (Uehara et al., 2019). All chemical compounds were dissolved in dimethyl sulfoxide (DMSO) as 10 mM stock solutions. Stock solutions were diluted with DMSO to the working concentration and added to assays in kinase reaction buffer (Uehara et al., 2019).
The activities of three known CK1 inhibitors were measured in vitro by a previously reported method (Uehara et al., 2019). Recombinant CKL4 kinase, casein, ^32P‐ATP, and different concentrations of the inhibitors were combined in a reaction buffer and kept at 37°C for 2 hr. Resulting samples were separated on a polyacrylamide gel by electrophoresis, and ^32P phosphorylation of casein was measured as an indicator of CKL4 kinase activity. IC50 (half‐maximal inhibitory concentration) was determined by calculating the results from at least two independent experiments. […] The stronger in vitro CK1 inhibitory activity shown by PF‐670462 relative to PHA767491 was consistent with previous reports (Uehara et al., 2019).

Experiment [1] deals with CCA1:LUC seedlings. Description: Bioluminescence-based circadian period lengthening in CCA1:LUC seedlings. The experiment is classed as in vivo, Arabidopsis thaliana. The following applies: for Period‐lengthening activity (in words) / Concentration required for 2‐hr period lengthening (2hLC) / Concentration required for 5‐hr period lengthening (5hLC): CCA1:LUC seedlings; for Concentration required for 2‐hr period lengthening (2hLC) / Concentration required for 5‐hr period lengthening (5hLC): constant light. The method, then:
Bioluminescence‐based circadian rhythms of CCA1:LUC plants treated with small molecules were analyzed by auto‐luminescence detection (Churitsu CL96) as described previously (Uehara et al., 2019). Period length was automatically calculated as previously described (Kamioka et al., 2016).
To estimate CK1 inhibitor activity in vivo, we choose to measure circadian period‐lengthening activity in Arabidopsis seedlings. The assay was made more efficient by monitoring the circadian period using a clock reporter plant line (CCA1:LUC) and an automated luminometer. These tools can be used to measure the circadian period with high confidence, and estimates of in vivo CK1 inhibitor activity are quantitative (Uehara et al., 2019). Four‐day‐old CCA1:LUC seedlings grown under 12‐hr light/12‐hr dark conditions were treated with IC261, PF‐670462, and PHA767491 at different concentrations, and seedling luminescence was monitored under constant light conditions. Dimethyl sulfoxide (DMSO), the solvent used for all of the CK1 inhibitors, was used as a control. IC261 lengthened the circadian period of CCA1:LUC seedlings in a dose‐dependent manner (Figure 1d), with a 2‐hr period lengthening at 500 µM. PF‐670462 and PHA767491 treatment concentrations also correlated with period lengthening (Figure 1e and f). The concentrations required for 2‐hr lengthening effects were 90 µM for PF‐670472 and 47 µM for PHA767491, which was consistent with previous work (Uehara et al., 2019). Thus, PHA767491 was the strongest in vivo CK1 inhibitor among the three inhibitors tested.

The subject of the next experiment is PRR5 and TOC1. Also noted: method as in Uehara et al., 2019. To be noted: ref Uehara et al., 2019; cited from earlier work.
Experiment [2] deals with CCA1:LUC seedlings. Also noted: method as in Uehara et al., 2019. The following applies: ref Uehara et al., 2019; cited from earlier work.
In another experiment the test system is GR60ox2 and CPD. Nature of the experiment: RT-qPCR of the ATSK downstream genes GR60ox2 and CPD. It counts as in vivo, Arabidopsis. The following applies: 10 or 50 µM, 6 hr. The method, then: […] Three biological replicates were used for each assay. Harvested seedlings were frozen in liquid nitrogen and crushed with zirconia beads in a Tissue Lyser II, and RNA was isolated with Illustra RNAspin (25‐0500‐72, GE Healthcare). RT‐qPCR was performed as described previously (Nakamichi et al., 2010) using an Eco Real‐Time PCR System (Illumina). Gene expression was normalized against IPP2, and maximal values were set to 1. Primers for detecting IPP2, PRR7, GR60ox2, and CPD were described previously (De Rybel et al., 2009; Kamioka et al., 2016).
Because the ATSK family was identified by the molecular probe assay as potential targets of AMI‐331, even though the affinities between AMI‐331 and ATSKs were not as high as between AMI‐331 and CK1, […] affects the expression of genes downstream of ATSKs (De Rybel et al., 2009). […]
(In general: In qPCR the cycle at which signal appears reflects the starting amount.)

The next experiment relates to PRR7. Nature of the experiment: RT-qPCR of the CK1 downstream gene PRR7. The experiment is classed as in vivo, Arabidopsis. To be noted: 10 and 50 µM, 6 hr. The procedure:
Arabidopsis Col‐0 seedlings that had been grown under constant light conditions for […] were immersed in 10 or 50 µM of the GSK‐3, SHAGGY‐related, and BIN2 kinase inhibitor Bikinin (SML0094, Sigma) (De Rybel et al., 2009), […], or DMSO as control for 6 hr. Three biological replicates were used for each assay. Harvested seedlings were frozen in liquid nitrogen and crushed with zirconia beads in a Tissue Lyser II, and RNA was isolated with Illustra RNAspin (25‐0500‐72, GE Healthcare). RT‐qPCR was performed as described previously (Nakamichi et al., 2010) using an Eco Real‐Time PCR System (Illumina). Gene expression was normalized against IPP2, and maximal values were set to 1. Primers for detecting IPP2, PRR7, GR60ox2, and CPD were described previously (De Rybel et al., 2009; Kamioka et al., 2016).
Because the ATSK family was identified by the molecular probe assay as potential targets of AMI‐331, even though the affinities between AMI‐331 and ATSKs were not as high as between AMI‐331 and CK1, we used the ATSK inhibitor Bikinin to determine if AMI‐331 treatment affects the expression of genes downstream of ATSKs (De Rybel et al., 2009). Four‐day‐old Arabidopsis seedlings grown under constant light conditions were treated with Bikinin or AMI‐331 for 6 hr, and mRNA extracted from seedlings samples was analyzed by RT‐qPCR.

Where [3] appears, read: recombinant CKL4, casein, 32P‐ATP, 37°C for 2 hr, read-out: IC50 for in vitro CKL4 kinase activity.

Molecules are shown by their SMILES. “Also recorded” adds a separate entry of the source. Where two headings read alike, the source gives them in different places.

Turning to `COc1cc(OC)c(C=C2C(O)=Nc3ccccc32)c(OC)c1` [IC261, reference compound], the IC50 on Recombinant CKL4 kinase is 6700 nM.

Regarding `O=C1NCCc2[nH]c(-c3ccncc3)c(Br)c21` [AMI‐23], in the experiment on CCA1:LUC seedlings [1], the “Period‐lengthening activity (in words)” value is “Strong activities”, the “Concentration required for 2‐hr period lengthening (2hLC)” value (“Concentration required … (2hLC)” below) is given as 1.5 µM and the “Concentration required for 5‐hr period lengthening (5hLC)” value was 5.0 µM. Moreover, the IC50 at Recombinant CKL4 kinase (setting [3]) amounted to 700 nM.

On to `Cl.O=C1NCCc2[nH]c(-c3ccncc3)cc21` [PHA767491, 1,5,6,7‐tetrahydro‐2‐(4‐pyridinyl)‐4H‐pyrrolo[3,2‐c]pyridin‐4‐one hydrochloride], for which the “Effective concentrations for PRR5 or TOC1 accumulation” value in the experiment with PRR5 and TOC1 is 250 to 500 µM. Besides, the “Effective concentration of PHA767491 as CK1 inhibitor in plants” value in the experiment with CCA1:LUC seedlings [2] is recorded as “more than 40 µM”. Further, on Recombinant CKL4 kinase (setting [3]), the IC50 amounted to 5900 nM.

Consider `CCn1c(-c2ccncc2)cc2c1CCNC2=O` [AMI‐126], for which the “Period‐lengthening activity (in words)” value with CCA1:LUC seedlings [1] is on record as “strong activity”.

Take `C#CCn1c(-c2ccncc2)cc2c1CCNC2=O` [AMI‐212]: in the experiment with CCA1:LUC seedlings [1], the “Period‐lengthening activity (in words)” value is recorded as “weak period‐lengthening activity; also recorded: stronger period‐lengthening activity than AMI‐126”, the “Concentration required … (2hLC)” value is recorded as “around 7.0 µM” and the “Concentration required for 5‐hr period lengthening (5hLC)” value is listed as 26 µM. Also, the “Concentration required … (2hLC)” value in the experiment with CCA1:LUC seedlings [1] (listed as AMI-212) turned out to be 7.0 µM. Further, in the experiment with CCA1:LUC seedlings [1] (compared with parent PHA767491), the “Period‐lengthening (in vivo inhibitory) activity relative to PHA767491” value is on record as “approximately fivefold higher”. Moreover, the IC50 on Recombinant CKL4 kinase (setting [3]) turned out to be 1200 nM.

With `Cc1c(-c2ccncc2)[nH]c2c1C(=O)NCC2` [AMI‐217], the “Period‐lengthening activity (in words)” value in the experiment with CCA1:LUC seedlings [1] is “Strong activities”.

As to `Cl.O=C1NCCc2c1cc(-c1ccncc1)n2CCn1cccc1` [AMI‐118], the “Period‐lengthening activity (in words)” value in the experiment with CCA1:LUC seedlings [1] was “weak period‐lengthening activity”.

On to `O=C1NCCc2[nH]c(-c3ccncc3)c(Cl)c21` [AMI‐24], for which the “Period‐lengthening activity (in words)” value in the experiment on CCA1:LUC seedlings [1] was “Strong activities”.

Take `O=C(O)CCC(=O)Nc1ccc(Br)cn1` [Bikinin, reference compound]: the “GR60ox2 and CPD transcript abundance” value with GR60ox2 and CPD is “reduced”. Further, the “Period lengthening on inhibition of ATSKs” value with CCA1:LUC seedlings [2] is “did not result in period lengthening”. Further, the PRR7 transcript abundance result with PRR7 is “did not affect”.

With `Nc1nccc(-c2c(-c3ccc(F)cc3)ncn2C2CCCCC2)n1` [PF‐670462, reference compound], at Recombinant CKL4 kinase (setting [3]), the IC50 stood at 800 nM.
